Results as given in ChEMBL document CHEMBL1144309, “Specific recognition of napthyridine-based ligands toward guanine-containing bulges in RNA duplexes and RNA-DNA heteroduplexes” (Bioorg Med Chem Lett, 2005).

Legend:
[1] = system: Human immunodeficiency virus 1; assay: Dissociation constant was measured against HIV-1 RNA construct K (present in HIV-1 RRE IIB RNA region); format: functional
[2] = system: Human immunodeficiency virus 1; assay: Dissociation constant was measured against HIV-1 RNA construct J (present in HIV-1 RRE IIB RNA region); format: functional
[3] = system: Human immunodeficiency virus 1; assay: Dissociation constant was measured against HIV-1 RNA construct I (present in HIV-1 RRE IIB RNA region); format: functional
[4] = system: Human immunodeficiency virus 1; assay: Dissociation constant was measured against HIV-1 RNA construct E (present in HIV-1 RRE IIB RNA region); N.B. = no measurable binding; format: functional
[5] = system: Human immunodeficiency virus 1; assay: Dissociation constant was measured against HIV-1 RNA construct B (present in HIV-1 RRE IIB RNA region); format: functional
[6] = system: Human immunodeficiency virus 1; assay: Dissociation constant was measured against HIV-1 RNA construct D (present in HIV-1 RRE IIB RNA region); format: functional
[7] = system: Human immunodeficiency virus 1; assay: Dissociation constant was measured against HIV-1 RNA construct F (present in HIV-1 RRE IIB RNA region); N.B. = no measurable binding; format: functional, organism-based
[8] = system: Human immunodeficiency virus 1; assay: Dissociation constant was measured against HIV-1 RNA construct H (present in HIV-1 RRE IIB RNA region); N.B. = no measurable binding; format: functional, organism-based
[9] = system: Human immunodeficiency virus 1; assay: Dissociation constant was measured against HIV-1 RNA construct C (present in HIV-1 RRE IIB RNA region); format: functional
[10] = system: Human immunodeficiency virus 1; assay: Dissociation constant was measured against HIV-1 RNA construct A (present in HIV-1 RRE IIB RNA region); format: functional
[11] = system: Human immunodeficiency virus 1; assay: Dissociation constant was measured against HIV-1 RNA construct G (present in HIV-1 RRE IIB RNA region); N.B. = no measurable binding; format: functional, organism-based

Cc1ccc2ccc(NC(=O)CCNCCNCCC(=O)Nc3ccc4ccc(C)nc4n3)nc2n1
Kd [1]: 34.9 µM
Kd [2]: 32.3 µM
Kd [3]: 35.1 µM

Cc1ccc2ccc(NC(=O)CCN)nc2n1
Kd [4]: No binding
Kd [5]: 2.4 µM
Kd [6]: 3.2 µM
Kd [7]: No binding
Kd [8]: No binding
Kd [9]: 2.9 µM
Kd [10]: 1.4 µM
Kd [11]: No binding
